Key:
[1] = Binding capacity to hydroxyapatite; type: physicochemical
[2] = Solubility of salicylic acid (water, ethanol and PEG); type: physicochemical

binding capacity to hydroxyapatite [1]: ≤ 1 mg
solubility in ethanol and PEG (poly ethylene glycol) ([2]; ethanol and PEG): up to 30%
solubility in water ([2]; water): water insoluble
SMILES: O=C(O)c1ccccc1O [Salicylic acid, 2-Hydroxybenzoic acid]

Source: patent publication US10758478B2, “Active agent loaded uniform, rigid, spherical, nanoporous calcium phosphate particles and methods of making and using the same” (Laboratory Skin Care, Inc., priority 2008, dated 2020)
